Test results from patent US6869964B2, “Heterocyclicsulfonamide hepatitis C virus inhibitors” (Bristol-Myers Squibb Company, priority 2002, dated 2005).
pIC50: −log10 of the molar value. Where two headings read alike, the source gives them in different places.

Key:
[1] = target: T1, HCV NS3/4A protease complex (BMS strain) (Hepatitis C virus genotype 1a, UniProt P27958, C1454S); experiment: Recombinant HCV NS3/4A protease complex FRET peptide assay, BMS strain; format: biochemical, HCV genotype 1a
T1 construct: HCV NS3/4A protease complex (amino acids 1027 to 1711); inferred from pET21b vector and Ni-NTA purification; made in house; host or cells: Escherichia coli BL21 (DE3), pET21b
From the text: Recombinant HCV NS3/4A Protease Complex FRET Peptide Assay
The purpose of this in vitro assay was to measure the inhibition of HCV NS3 protease complexes, derived from the BMS, H77C or J4l6S strains, as described below, by compounds of the present invention. This assay provides an indication of how effective compounds of the present invention would be in inhibiting HCV proteolytic activity.
Serum from an HCV-infected patient was obtained from Dr. T. Wright, San Francisco Hospital. An engineered full-length cDNA template of the HCV genome (BMS strain) was constructed from DNA fragments obtained by reverse transcription-PCR (RT-PCR) of serum RNA and using primers selected on the basis of homology between other genotype la strains. From the determination of the entire genome sequence, a genotype la was assigned to the HCV isolate according to the classification of Simmonds et al. (See P Simmonds, K A Rose, S Graham, S W Chan, F McOmish, B C Dow, E A Follett, P L Yap and H Marsden, J. Clin. Microbiol., 31(6), 1493-1503 (1993)). […] The infectious clones, H77C (1a genotype) and J4 L6S (1b genotype) were obtained from R. Purcell (NIH) and the sequences are published in Genbank (AAB67036, see Yanagi, M., Purcell, R. H., Emerson, S. U. and Bukh, J. Proc. Natl. Acad. Sci. U.S.A. 94(16),8738-8743 (1997); AF054247, see Yanagi, M., St Claire, M., Shapiro, M., Emerson, S. U., Purcell, R. H. and Bukh, J, Virology 244 (1), 161-172. (1998)).
The BMS, H77C and J4 L6S strains were used for production of recombinant NS3/4A protease complexes. DNA encoding the recombinant HCV NS3/4A protease complex (amino acids 1027 to 1711) for these strains were manipulated as described by P. Gallinari et al. (see Gallinari P, Paolini C, Brennan D, Nardi C, Steinkuhler C, De Francesco R. Biochemistry. 38(17):5620-32, (1999)). Briefly, a three-lysine solubilizing tail was added at the 3′-end of the NS4A coding region. The cysteine in the P1 position of the NS4A-NS4B cleavage site (amino acid 1711) was changed to a glycine to avoid the proteolytic cleavage of the lysine tag. Furthermore, a cysteine to serine mutation was introduced by PCR at amino acid position 1454 to prevent the autolytic cleavage in the NS3 helicase domain. The variant DNA fragment was cloned in the pET21b bacterial expression vector (Novagen) and the NS3/4A complex was expressed in Escherichia coli strain BL21 (DE3) (Invitrogen) following the protocol described by P. Gallinari et al. (see Gallinari P, Brennan D, Nardi C, Brunetti M, Tomei L, Steinkuhler C, De Francesco R., J Virol. 72(8):6758-69 (1998)) with modifications. Briefly, NS3/4A expression was induced with 0.5 mM Isopropyl β-D-1-thiogalactopyranoside (IPTG) for 22 hr at 20° C. A typical fermentation (10 L) yielded approximately 80 g of wet cell paste. The cells were resuspended in lysis buffer (10 mL/g) consisting of 25 mM N-(2-Hydroxyethyl)Piperazine-N′-(2-Ethane Sulfonic acid) (HEPES), pH7.5, 20% glycerol, 500 mM Sodium Chloride (NaCl), 0.5% Triton-X100, 1 ug/ml lysozyme, 5 mM Magnesium Chloride (MgCl2), 1 ug/ml DnaseI, 5 mM β-Mercaptoethanol (βME), Protease inhibitor—Ethylenediamine Tetraacetic acid (EDTA) free (Roche), homogenized and incubated for 20 mins at 4° C. The homogenate was sonicated and clarified by ultra-centrifugation at 235000 g for lhr at 4° C. Imidazole was added to the supernatant to a final concentration of 15 mM and the pH adjusted to 8.0. The crude protein extract was loaded on a Nickel—Nitrilotriacetic acid (Ni—NTA) column pre-equilibrated with buffer B (25 mM HEPES, pH8.0, 20% glycerol, 500 mM NaCl, 0.5% Triton-X100, 15 mM imidazole, 5 mM βME). The sample was loaded at a flow rate of 1 mL/min. The column was washed with 15 column volumes of buffer C (same as buffer B except with 0.2% Triton-X100). The protein was eluted with 5 column volumes of buffer D (same as buffer C except with 200 mM Imidazole). […]

[2] = target: T2, human sputum elastase (HS) (Homo sapiens, UniProt P08246); experiment: Specificity assay, human sputum elastase; format: biochemical; conditions: 2 hr enzyme-inhibitor pre-incubation
T2 construct: human sputum elastase (HS); from tissue; host or cells: human sputum (from the enzyme's name only)
T2 sequence (P08246 30-267): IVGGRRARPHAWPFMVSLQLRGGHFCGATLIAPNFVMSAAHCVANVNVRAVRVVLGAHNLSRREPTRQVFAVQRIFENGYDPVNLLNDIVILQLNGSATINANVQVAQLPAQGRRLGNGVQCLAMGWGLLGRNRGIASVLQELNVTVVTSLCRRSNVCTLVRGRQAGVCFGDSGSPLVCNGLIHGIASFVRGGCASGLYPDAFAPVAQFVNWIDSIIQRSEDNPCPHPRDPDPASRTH
Experimental: The specificities of compounds of the present invention were determined against a variety of serine proteases: human sputum elastase (HS), porcine pancreatic elastase (PPE) and human pancreatic chymotrypsin and one cysteine protease: human liver cathepsin B. In all cases a 96-well plate format protocol using colorimetric p-nitroaniline (pNA) substrate specific for each enzyme was used as described previously (CT 2633 application) with some modifications to the serine protease assays.
Each assay included a 2 hr enzyme-inhibitor pre-incubation at RT followed by addition of substrate and hydrolysis to ˜30% conversion as measured on a Spectramax Pro microplate reader. Compound concentrations varied from 100 to 0.4 μM depending on their potency.
The final conditions and protocol for the serine protease assays were: • 50 mM Tris(hydroxymethyl)aminomethane hydrochloride (Tris-HCl) pH8, • 0.5M Sodium Sulfate (Na2SO4), 50 mM NaCl, 0.1 mM EDTA, 3% DMSO, • 0.01% Tween-20 with: 133 μM succ-AAA-pNA and 20 nM HS or 8 nM PPE; 100 μM succ-AAPF-pNA and 250 pM Chymotrypsin.
The percentage of inhibition was calculated using the formula: [1−((UVinh−UVblank)/(UVctl−UVblank))]×100
A non-linear curve fit was applied to the inhibition-concentration data, and the 50% effective concentration (IC50) was calculated by the use of Excel Xl-fit software.

T1 sequence (P27958 1027-1657 C1454S): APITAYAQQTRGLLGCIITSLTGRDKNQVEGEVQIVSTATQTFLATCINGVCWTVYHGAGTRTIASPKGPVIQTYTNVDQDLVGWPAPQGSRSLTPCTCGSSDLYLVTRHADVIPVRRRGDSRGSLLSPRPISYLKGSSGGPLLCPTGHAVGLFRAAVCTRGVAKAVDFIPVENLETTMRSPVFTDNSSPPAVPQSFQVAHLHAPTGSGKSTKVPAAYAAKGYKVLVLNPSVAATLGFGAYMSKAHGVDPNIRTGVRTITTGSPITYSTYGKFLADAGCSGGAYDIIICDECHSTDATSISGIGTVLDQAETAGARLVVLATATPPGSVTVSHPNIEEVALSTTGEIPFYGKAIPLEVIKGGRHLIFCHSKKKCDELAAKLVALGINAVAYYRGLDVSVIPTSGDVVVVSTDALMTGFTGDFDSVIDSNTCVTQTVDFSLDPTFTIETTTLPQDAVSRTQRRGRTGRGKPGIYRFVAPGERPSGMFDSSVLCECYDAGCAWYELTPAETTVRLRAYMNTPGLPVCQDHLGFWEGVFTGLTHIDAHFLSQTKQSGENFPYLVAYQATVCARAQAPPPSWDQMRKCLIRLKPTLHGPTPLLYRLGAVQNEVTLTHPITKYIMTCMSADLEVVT
T1 sequence (P27958 1658-1711 partner, looked up, stated change not applied): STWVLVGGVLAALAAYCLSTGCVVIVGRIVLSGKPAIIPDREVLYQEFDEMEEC

C=CC1C[C@]1(NC(=O)[C@@H]1C[C@@H](Oc2cc(-c3ccccc3)nc3cc(OC)ccc23)CN1C(=O)[C@@H](NC(=O)OC(C)(C)C)C(C)(C)C)C(=O)NS(=O)(=O)c1cccs1 (stereo in doubt) [Compound 1, (1-{4-(7-Methoxy-2-phenylquinolin-4-yloxy)-2-[1-(thiophene-2-sulfonylaminocarbonyl)-2-vinyl-cyclopropylcarbamoyl]-pyrrolidine-1-carbonyl}-2,2-dimethylpropyl)carbamic acid tert-butyl ester]
pIC50 ([1]; BMS strain, read-out: IC50 against the NS3/4A BMS strain in the enzyme assay): 8.10 | pIC50 ([1]; NS3/4A BMS Strain, activity range, read-out: IC50 a, b, c (Activity Table)): > 7.00 | pIC50 [2]: 4.46
